Data taken from ChEMBL document CHEMBL3124744, “4-Functionalized 1,3-diarylpyrazoles bearing benzenesulfonamide moiety as selective potent inhibitors of the tumor associated carbonic anhydrase isoforms IX and XII” (Eur J Med Chem, 2014).

What follows are compounds tested against Carbonic anhydrase 12 (Homo sapiens, UniProt O43570).
Carbonic anhydrase 12, sequence (O43570 whole entry): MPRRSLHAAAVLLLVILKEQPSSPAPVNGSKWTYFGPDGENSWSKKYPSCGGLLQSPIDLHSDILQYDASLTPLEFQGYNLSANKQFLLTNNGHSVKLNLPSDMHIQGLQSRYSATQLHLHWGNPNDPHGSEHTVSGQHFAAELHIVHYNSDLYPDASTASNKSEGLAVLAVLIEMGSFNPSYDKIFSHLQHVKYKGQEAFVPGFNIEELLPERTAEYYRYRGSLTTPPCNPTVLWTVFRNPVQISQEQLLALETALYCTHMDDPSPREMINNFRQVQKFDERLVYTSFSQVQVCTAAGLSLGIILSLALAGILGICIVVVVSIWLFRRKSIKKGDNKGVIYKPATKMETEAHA
Description: Inhibition of human carbonic anhydrase 12-mediated CO2 hydration preincubated for 10 mins by stopped-flow assay

Ki [nM] | SMILES
43.7 | COC(=O)c1cn(-c2ccc(S(N)(=O)=O)cc2)nc1-c1ccc(Br)cc1

These compounds were tested against Carbonic anhydrase 9 (Homo sapiens, UniProt Q16790).
Description: Inhibition of human carbonic anhydrase 9-mediated CO2 hydration preincubated for 10 mins by stopped-flow assay

Ki [nM] | SMILES
2.3 | NC(=O)c1cn(-c2ccc(S(N)(=O)=O)cc2)nc1-c1ccc(F)cc1
49 | NC(=O)c1cn(-c2ccc(S(N)(=O)=O)cc2)nc1-c1ccc([N+](=O)[O-])cc1
2.1 | NC(=O)c1cn(-c2ccc(S(N)(=O)=O)cc2)nc1-c1cccs1
17.1 | COC(=O)c1cn(-c2ccc(S(N)(=O)=O)cc2)nc1-c1ccc(Cl)cc1
5.2 | COC(=O)c1cn(-c2ccc(S(N)(=O)=O)cc2)nc1-c1ccc([N+](=O)[O-])cc1

SMILES | Ki [nM]
NC(=O)c1cn(-c2ccc(S(N)(=O)=O)cc2)nc1-c1ccc(Cl)cc1 | 5.2
